In PubChem BioAssay AID248 (DTP/NCI, 2004):
Several values for one entry are separate records, joined by “and”; a condition that tells them apart may be missing. Equal values may be shown once. Toxic doses and inconclusive results are not listed. No stated cut-off is given here; in the data, active means T/C of 150% or more; inactive means T/C below 125%.

Tested on: L1210 leukemia ip in BDF1 mice, survival T/C
Test: NCI In Vivo Anticancer Drug Screen. Data for tumor model L1210 Leukemia (intraperitoneal) in B6D2F1 (BDF1) mice
Conditions: endpoint: mean survival time, higher = longer survival
In short: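 Transplantable tumor model; survival measured in treated vs vehicle control mice. Value = treated/control.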

[1] = dose: 100.0 mg/kg/injection, schedule: Q04DX003 (ip), vehicle: saline with Tween-80
[2] = dose: 200.0 mg/kg/injection, schedule: Q04DX003 (ip), vehicle: saline with Tween-80
[3] = dose: 25.0 mg/kg/injection, schedule: Q01DX009 (ip), vehicle: saline
[4] = dose: 50.0 mg/kg/injection, schedule: Q01DX009 (ip), vehicle: saline
[5] = dose: 100.0 mg/kg/injection, schedule: Q01DX009 (ip), vehicle: saline
[6] = dose: 200.0 mg/kg/injection, schedule: Q01DX009 (ip), vehicle: saline
[7] = dose: 400.0 mg/kg/injection, schedule: Q01DX009 (ip), vehicle: saline
[8] = dose: 100.0 mg/kg/injection, schedule: Q04DX003 (ip), vehicle: Klucel (hydroxypropylcellulose) (HPC)
[9] = dose: 200.0 mg/kg/injection, schedule: Q04DX003 (ip), vehicle: Klucel (hydroxypropylcellulose) (HPC)
[10] = dose: 400.0 mg/kg/injection, schedule: Q04DX003 (ip), vehicle: Klucel (hydroxypropylcellulose) (HPC)
[11] = dose: 100.0 mg/kg/injection, schedule: Q01DX001 (ip), vehicle: saline
[12] = dose: 200.0 mg/kg/injection, schedule: Q01DX001 (ip), vehicle: saline
[13] = dose: 400.0 mg/kg/injection, schedule: Q01DX001 (ip), vehicle: saline

Measured: T/C

O=C1c2nc3ccccc3nc2C(=O)N1O
inactive: dose: 100.0 mg/kg/injection, schedule: Q01DX009 (ip), vehicle: Klucel (hydroxypropylcellulose) (HPC) 107 % of control | dose: 200.0 mg/kg/injection, schedule: Q01DX009 (ip), vehicle: Klucel (hydroxypropylcellulose) (HPC) 100 % of control

O=C(Nc1ccc(Cl)cc1C(F)(F)F)Sc1ccc(Cl)cc1
inactive: dose: 100.0 mg/kg/injection, schedule: Q01DX001 (ip), vehicle: gum acacia 103 % of control and 104 % of control | dose: 100.0 mg/kg/injection, schedule: Q01DX009 (ip), vehicle: gum acacia 92 % of control | dose: 100.0 mg/kg/injection, schedule: Q04DX002 (ip), vehicle: gum acacia 99 % of control and 88 % of control | dose: 100.0 mg/kg/injection, schedule: Q04DX003 (ip), vehicle: gum acacia 92 % of control and 87 % of control | dose: 200.0 mg/kg/injection, schedule: Q01DX001 (ip), vehicle: gum acacia 98 % of control and 103 % of control | dose: 200.0 mg/kg/injection, schedule: Q01DX009 (ip), vehicle: gum acacia 90 % of control | dose: 200.0 mg/kg/injection, schedule: Q04DX002 (ip), vehicle: gum acacia 101 % of control and 102 % of control | dose: 200.0 mg/kg/injection, schedule: Q04DX003 (ip), vehicle: gum acacia 92 % of control and 109 % of control | dose: 400.0 mg/kg/injection, schedule: Q01DX001 (ip), vehicle: gum acacia 100 % of control and 103 % of control | dose: 400.0 mg/kg/injection, schedule: Q04DX002 (ip), vehicle: gum acacia 97 % of control and 89 % of control | dose: 400.0 mg/kg/injection, schedule: Q04DX003 (ip), vehicle: gum acacia 97 % of control and 90 % of control

C1=CC(c2ccccc2)=C(c2ccccc2)C(c2ccccc2)C(c2ccccc2)=C1 (stereo not drawn)
inactive: dose: 50.0 mg/kg/injection, schedule: Q01DX001 (ip), vehicle: carboxymethylcellulose (CMC) 94 % of control | dose: 100.0 mg/kg/injection, schedule: Q01DX001 (ip), vehicle: carboxymethylcellulose (CMC) 96 % of control | dose: 200.0 mg/kg/injection, schedule: Q01DX001 (ip), vehicle: carboxymethylcellulose (CMC) 96 % of control | dose: 400.0 mg/kg/injection, schedule: Q01DX001 (ip), vehicle: carboxymethylcellulose (CMC) 89 % of control

C=C(C)CC1(CC)C(=O)NC(=S)NC1=O
inactive: [1] 96 % of control | [2] 98 % of control

CCOC(=O)C(Br)C(=O)OCC
inactive: dose: 18.75 mg/kg/injection, schedule: Q01DX009 (ip), vehicle: saline with Tween-80 97 % of control

CCN1C(=O)Cc2ccccc21
inactive: dose: 100.0 mg/kg/injection, schedule: Q01DX001 (ip), vehicle: Klucel (hydroxypropylcellulose) (HPC) 98 % of control | dose: 200.0 mg/kg/injection, schedule: Q01DX001 (ip), vehicle: Klucel (hydroxypropylcellulose) (HPC) 102 % of control | dose: 400.0 mg/kg/injection, schedule: Q01DX001 (ip), vehicle: Klucel (hydroxypropylcellulose) (HPC) 93 % of control

CSc1cc(C)c(OC(=O)Nc2cc(C)ccc2C)c(C)c1
inactive: [3] 98 % of control | [4] 93 % of control | [5] 91 % of control | dose: 100.0 mg/kg/injection, schedule: Q04DX003 (ip), vehicle: saline 107 % of control | [6] 91 % of control | dose: 200.0 mg/kg/injection, schedule: Q04DX003 (ip), vehicle: saline 98 % of control | [7] 106 % of control | dose: 400.0 mg/kg/injection, schedule: Q04DX003 (ip), vehicle: saline 95 % of control

FCCCC1CCCCN1 (stereo not drawn)
inactive: dose: 12.5 mg/kg/injection, schedule: Q01DX009 (ip), vehicle: saline 98 % of control | [3] 102 % of control | [4] 96 % of control and 109 % of control

c1ccc(C([CH2][Hg][CH2]C(c2ccccc2)c2ccccc2)c2ccccc2)cc1
inactive: [5] 101 % of control | [8] 97 % of control | [6] 96 % of control | [9] 93 % of control | [7] 101 % of control | [10] 90 % of control

Cc1ccc(CCCCCCCCCCCC(=O)O)cc1
inactive: dose: 50.0 mg/kg/injection, schedule: Q01DX009 (ip), vehicle: saline with Tween-80 93 % of control | dose: 100.0 mg/kg/injection, schedule: Q01DX009 (ip), vehicle: saline with Tween-80 97 % of control | dose: 200.0 mg/kg/injection, schedule: Q01DX009 (ip), vehicle: saline with Tween-80 93 % of control

BrCCC[CH2][Sn]([c]1ccccc1)([c]1ccccc1)[c]1ccccc1
inactive: [4] 100 % of control | [5] 100 % of control | [6] 100 % of control

CCCN(CC#N)CCC
inactive: dose: 3.0 mg/kg/injection, schedule: Q01DX009 (ip), vehicle: Klucel (hydroxypropylcellulose) (HPC) 97 % of control | dose: 6.0 mg/kg/injection, schedule: Q01DX009 (ip), vehicle: Klucel (hydroxypropylcellulose) (HPC) 97 % of control | dose: 6.0 mg/kg/injection, schedule: Q04DX003 (ip), vehicle: Klucel (hydroxypropylcellulose) (HPC) 98 % of control | dose: 12.0 mg/kg/injection, schedule: Q01DX009 (ip), vehicle: Klucel (hydroxypropylcellulose) (HPC) 97 % of control | dose: 12.0 mg/kg/injection, schedule: Q04DX003 (ip), vehicle: Klucel (hydroxypropylcellulose) (HPC) 107 % of control | dose: 25.0 mg/kg/injection, schedule: Q04DX003 (ip), vehicle: Klucel (hydroxypropylcellulose) (HPC) 96 % of control

[N-]=[N+]=Nc1ccc2c(=O)c3ccccc3[nH]c2c1
inactive: dose: 100.0 mg/kg/injection, schedule: Q04DX003 (ip), vehicle: acetone 89 % of control | dose: 200.0 mg/kg/injection, schedule: Q04DX003 (ip), vehicle: acetone 98 % of control | dose: 400.0 mg/kg/injection, schedule: Q04DX003 (ip), vehicle: acetone 96 % of control

O=C(CC(=O)Nc1ccc(C2=NCCCN2)cc1)Nc1ccc(C2=NCCCN2)cc1
inactive: dose: 6.25 mg/kg/injection, schedule: Q01DX Z (ip), vehicle: water 110 % of control | dose: 12.5 mg/kg/injection, schedule: Q01DX Z (ip), vehicle: water 113 % of control | dose: 25.0 mg/kg/injection, schedule: Q01DX Z (ip), vehicle: water 101 % of control | dose: 50.0 mg/kg/injection, schedule: Q01DX Z (ip), vehicle: water 104 % of control | dose: 62.5 mg/kg/injection, schedule: Q01DX Z (ip), vehicle: water 96 % of control | dose: 125.0 mg/kg/injection, schedule: Q01DX Z (ip), vehicle: water 102 % of control | dose: 250.0 mg/kg/injection, schedule: Q01DX Z (ip), vehicle: water 97 % of control

Cc1ccc(C)c(C(=O)CCCCl)c1
inactive: [1] 98 % of control

Cc1ccc(C)c(OC2CCCCC2=O)c1 (stereo not drawn)
inactive: [11] 100 % of control | [12] 100 % of control | [13] 91 % of control

O=C1C2C3c4ccccc4C(C2C(=O)N1c1ccc(Cl)cc1)[n+]1ccccc13 (stereo not drawn)
inactive: dose: 75.0 mg/kg/injection, schedule: Q01DX001 (ip), vehicle: other 96 % of control | dose: 150.0 mg/kg/injection, schedule: Q01DX001 (ip), vehicle: other 103 % of control

CCC(=O)/C=C/c1ccccc1OC
inactive: dose: 100.0 mg/kg/injection, schedule: Q04DX002 (ip), vehicle: saline with Tween-80 97 % of control | dose: 200.0 mg/kg/injection, schedule: Q04DX002 (ip), vehicle: saline with Tween-80 105 % of control | dose: 400.0 mg/kg/injection, schedule: Q04DX002 (ip), vehicle: saline with Tween-80 105 % of control

C[n+]1ccccc1/C=C/c1cccc(O)c1
inactive: dose: 9.38 mg/kg/injection, schedule: Q01DX001 (ip), vehicle: other 103 % of control | dose: 18.75 mg/kg/injection, schedule: Q01DX001 (ip), vehicle: other 100 % of control

COc1cc(C(=O)N2CCN(c3ccccc3)CC2)c2ccccc2n1
inactive: dose: 100.0 mg/kg/injection, schedule: Q01DX001 (ip), vehicle: other 98 % of control | dose: 200.0 mg/kg/injection, schedule: Q01DX001 (ip), vehicle: other 112 % of control | dose: 400.0 mg/kg/injection, schedule: Q01DX001 (ip), vehicle: other 101 % of control

COC(=O)NCCOS(C)(=O)=O
inactive: [11] 91 % of control | [12] 91 % of control | [13] 88 % of control

COc1cc(-c2cnc(N)nc2N)cc(OC)c1OC
inactive: [1] 97 % of control | [2] 103 % of control | dose: 400.0 mg/kg/injection, schedule: Q04DX003 (ip), vehicle: saline with Tween-80 95 % of control

CC(C)(O)C#CC(C)(C)O
inactive: [5] 115 % of control | [6] 110 % of control | [7] 110 % of control

CCCCCCC(CO)CCCC (stereo not drawn)
inactive: [8] 97 % of control | [9] 97 % of control | [10] 100 % of control
